For one assay, the target named is T1, HMGB2 (Mus musculus, UniProt P30681).
T1 construct: endogenous in cells
T1 sequence (P30681 1-210): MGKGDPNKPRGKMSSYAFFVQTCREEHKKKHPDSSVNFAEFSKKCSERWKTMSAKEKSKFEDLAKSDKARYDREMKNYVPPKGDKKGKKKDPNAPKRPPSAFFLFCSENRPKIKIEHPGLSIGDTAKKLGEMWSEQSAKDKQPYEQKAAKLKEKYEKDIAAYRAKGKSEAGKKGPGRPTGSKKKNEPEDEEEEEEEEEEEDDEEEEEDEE
The assay is described as follows: Pull-down assay with immunoblotting for HMGB2. It is filed as binding. As to conditions: ICM 20 μM as soluble competitor, ICM-BP 5 μM, FIG. 12. Here is the method:
Cells were treated with the compounds (ICM-BP alone or ICM-BP/ICM in combination) for 30 min and then with LPS for 2 hrs. Afterwards, the cells were irradiated with 365-nm UV light for 30 min, washed with PBS and stored at −78° C. They were lysed in RIPA buffer containing a protease inhibitor cocktail, and the protein concentration was adjusted to approximately 1 mg/ml. The proteome was labeled with Cy5-azide (40 μM), TBTA (100 μM), CuSO4 (1 mM), TCEP (1 mM) and t-BuOH (5%) for 1 hrs. The mixture was treated with acetone at −20° C. for […] to precipitate proteins. After centrifugation at 4° C. and 14,000 rpm for […], the pellet was washed twice with cold acetone. For 1-D gel analysis, the pellet was dissolved in Laemmli sample buffer and analyzed by electrophoresis. For 2-D gel analysis, the pellet was dissolved in rehydration buffer. The proteome labeled with ICM-BP (test group) and the control (labeled with ICM-BP/ICM) were mixed (1:1 ratio). The mixed proteomes were analyzed by 2-D gel electrophoresis. In-gel fluorescence was scanned with a Typhoon Trio (GE Healthcare).
Cell lysates were prepared according to the same protocol used for the in-gel analysis (lyzed in RIPA buffer containing a protease inhibitor cocktail). […] Samples were boiled with Laemmli sample buffer, and analyzed by electrophoresis and immunoblotting for HMGB2.
Background: Immunoblotting shows a protein as a band on a membrane.

Another assay concerns Il6, Il1b, Nos2, and Tnf. The assay is described as follows: RT-PCR of pro-inflammatory mediator expression. Format: cell-based. As to conditions: FIG. 3. Here is the method: For the analysis of gene expression, cells were incubated with ICM for 6 hrs in the presence of LPS (for control, cells were treated with DMSO in the absence of LPS). Total RNA was extracted from cells using TRIzol reagent. Reverse transcription was conducted using Superscript II (Invitrogen) and oligo (dT) primers. PCR amplification was conducted using a DNA Engine Tetrad Peltier Thermal Cycler (Bio-Rad) using specific primer sets (at an annealing temperature of 55-60° C. for 20-30 cycles). To analyze PCR products, each sample was electrophoresed on a 1% agarose gel. The Gapdh (Glyceraldehyde-3-phosphate dehydrogenase) gene was used as an internal control.

Assay [1] deals with LPS-mediated microglial activation. In words: LPS neuroinflammation model. It is filed as in vivo, C57BL/6 mice. As to conditions: cortex, substantia nigra, hippocampus; ICM 2 and 10 mg/kg, FIG. 19. On the procedure: All experiments were performed on 11-week-old male C57BL/6 mice. The animals were divided into four experimental groups (group 1: control treated with vehicle; group 2: treated with ICM; group 3: treated with LPS and vehicle; and group 4: treated with LPS and ICM). ICM (2 or 10 mg per kg body weight) or vehicle (distilled water containing 5% DMSO and 40% polyethylene glycol) was administered once a day for 4 days. LPS was administered at a dose of 5 mg/kg on day 2 for a single challenge.
Mice were anesthetized with diethyl ether, transcardially perfused with cold saline, and then fixed with 4% paraformaldehyde diluted in 0.1 M PBS. Brains or lumbar spinal cords were fixed using 4% PFA for 3 days and then cryoprotected with a 30% sucrose solution for 3 days. Three animals were used per experimental group. The fixed brains and spinal cords were embedded in OCT compound for frozen sectioning and then sectioned coronally at 20 μm. To detect LPS-induced microglial activation, each section was incubated with a rabbit anti-Iba-1 antibody and FluoroMyelin. The sections were visualized directly or incubated with Cy3-conjugated anti-rabbit IgG antibody. Also, the sections were stained with hematoxylin and eosin to assess inflammatory lesions.

Structures are written as SMILES.

For the compound `CC1(C)Oc2cc(O)ccc2C2C1=CCn1c(=O)n(-c3ccccc3)c(=O)n12` (stereo not drawn) [ICM], the “competition of ICM-BP binding to HMGB2” value at HMGB2 was “markedly lowered the level of binding for HMGB2”. For the same compound, the “LPS-induced expression of pro-inflammatory genes” value in the assay on Il6, Il1b, Nos2, and Tnf is “suppressed the LPS-induced expression of pro-inflammatory genes in a dose-dependent manner”. In assay [1], the “LPS-mediated microglial activation (Iba-1+ cell number)” value is “effectively blocked LPS-mediated microglial activation in all the brain parts”.
